Data published in patent US8017612B2, “Piperazine compound and use thereof as a HCV polymerase inhibitor” (priority 2006, dated 2011).
Structures can show the parent of a compound that is named as a salt.

Columns and labels:
[1] = molecular target: T1, HCV polymerase (NS5B) type 1b (Hepatitis C virus genotype 1b, UniProt P26663); assay: Assay of enzyme (HCV polymerase) inhibitory activity, type 1b enzyme; type: biochemical, HCV BK strain (type 1b); conditions: HCV polymerase inhibitory activity (IC50), 1b, type 1b enzyme 0.5 μg/ml, 25° C., 60 min
T1 construct: a region encoding NS5B (J Virol 1991 March, 65(3), 1105-13, 544 amino acids after deletion of 47 amino acids on the C-terminal); 6xHis (C); made in house; host or cells: Escherichia coli
Method in brief: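 NS5B from HCV BK strain (type 1b), C-terminal 47 aa deleted, C-terminal His6-tagged, E. coli-expressed, 0.5 μg/ml, with ~450 nt substrate RNA carrying the 3′ UTR (polyU, 3′X) at 5 μg/ml. Incubation 60 min at 25 °C with 50 μM ATP/GTP/CTP, 2 μM UTP plus [3H]UTP, pH 7.5 Tris.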

[2] = molecular target: T2, HCV polymerase (NS5B) type 1a (Hepatitis C virus genotype 1a, UniProt P26664); assay: Assay of enzyme (HCV polymerase) inhibitory activity, type 1a enzyme; type: biochemical, HCV type 1a (cloned from the blood of patients); conditions: HCV polymerase inhibitory activity (IC50), 1a, type 1a enzyme 1.5 μg/ml, 25° C., 60 min
T2 construct: made in house; host or cells: Escherichia coli (by the 'similar method' of the 1b enzyme)
Method in brief: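 Patient-derived type 1a NS5B (C-terminal 47-aa deletion, His-tagged, E. coli-expressed) at 1.5 μg/ml was reacted with 5 μg/ml 3′UTR-containing substrate RNA, 50 μM ATP/GTP/CTP, 2 μM UTP plus [3H]UTP, pH 7.5, 25° C for 60 min. TCA-precipitated RNA radioactivity was counted; IC50 from ± compound.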

For `CC(=O)N1CCN(S(=O)(=O)c2ccc(C(C)C)cc2)C(C(=O)NCc2ccc(-c3ccccc3Cl)cc2)C1` (stereo not drawn) [Example 142, 4-acetyl-1-(4-isopropyl-benzenesulfonyl)-piperazine-2-carboxylic acid (2′-chloro-biphenyl-4-ylmethyl)-amide], the IC50 [1] was over 1000 nM and the IC50 [2] was over 1000 nM.

Compound `COCc1ccc(S(=O)(=O)N2CCN(C(C)=O)CC2C(=O)NCc2ccc(C(F)(F)F)cc2)cc1` (stereo not drawn) [Example 143, 4-acetyl-1-(4-methoxymethyl-benzenesulfonyl)-piperazine-2-carboxylic acid 4-trifluoromethyl-benzylamide] has an IC50 [1] of over 1000 nM and an IC50 [2] of over 1000 nM.

With `CCc1ccc(CNC(=O)C2CN(C(C)=O)CCN2S(=O)(=O)c2ccc(C(C)C)cc2)cc1` (stereo not drawn) [Example 144, 4-acetyl-1-(4-isopropyl-benzenesulfonyl)-piperazine-2-carboxylic acid 4-ethyl-benzylamide] the IC50 [1] was 100 to 1000 nM and the IC50 [2] was 100 to 1000 nM.

`CC(=O)N1CCN(S(=O)(=O)c2ccc(C(C)C)cc2)C(C(=O)NCCCc2ccccc2)C1` (stereo not drawn) [Example 145, 4-acetyl-1-(4-isopropyl-benzenesulfonyl)-piperazine-2-carboxylic acid (3-phenyl-propyl)-amide] was tested, and the IC50 [1] was over 1000 nM and the IC50 [2] was over 1000 nM.

Work on `CC(C)c1ccc(CNC(=O)[C@H]2CN(CC(N)=O)CCN2S(=O)(=O)c2ccc(C(F)(F)F)cc2)cc1` [Example 146, (R)-4-carbamoylmethyl-1-(4-trifluoromethyl-benzenesulfonyl)-piperazine-2-carboxylic acid 4-isopropyl-benzylamide] yielded an IC50 [1] of 100 to 1000 nM and an IC50 [2] of over 1000 nM.

Work on `CC(C)c1ccc(CNC(=O)[C@H]2CN(C3CC(=O)NC3=O)CCN2S(=O)(=O)c2ccc(C(F)(F)F)cc2)cc1` (stereo partly drawn) [Example 147, (R)-4-(2,5-dioxo-pyrrolidin-3-yl)-1-(4-trifluoromethyl-benzenesulfonyl)-piperazine-2-carboxylic acid 4-isopropyl-benzylamide] yielded an IC50 [1] of 100 to 1000 nM and an IC50 [2] of over 1000 nM.

Compound `CC(C)c1ccc(CNC(=O)[C@H]2CN(C3=C(c4ccccc4)C(=O)NC3=O)CCN2S(=O)(=O)c2ccc(C(F)(F)F)cc2)cc1` [Example 148, (R)-4-(2,5-dioxo-4-phenyl-2,5-dihydro-1H-pyrrol-3-yl)-1-(4-trifluoromethyl-benzenesulfonyl)-piperazine-2-carboxylic acid 4-isopropyl-benzylamide] has an IC50 [1] of over 1000 nM and an IC50 [2] of over 1000 nM.

`CC(=O)N1CCN(S(=O)(=O)c2ccc(C(C)C)cc2)[C@@H](C(=O)NCCc2ccccc2Cl)C1` [Example 149, (R)-4-acetyl-1-(4-isopropyl-benzenesulfonyl)-piperazine-2-carboxylic acid [2-(2-chloro-phenyl)-ethyl]-amide] gave an IC50 [1] of over 1000 nM and an IC50 [2] of over 1000 nM.

Compound `CC(=O)N1CCN(S(=O)(=O)c2ccc(C(C)C)cc2)[C@@H](C(=O)NCCc2cccc(Cl)c2)C1` [Example 150, (R)-4-acetyl-1-(4-isopropyl-benzenesulfonyl)-piperazine-2-carboxylic acid [2-(3-chloro-phenyl)-ethyl]-amide] has an IC50 [1] of over 1000 nM and an IC50 [2] of over 1000 nM.

`CC(=O)N1CCN(S(=O)(=O)c2ccc(C(C)C)cc2)C(C(=O)NCc2ccc(C(F)(F)F)nc2)C1` (stereo not drawn) [Example 151, 4-acetyl-1-(4-isopropyl-benzenesulfonyl)-piperazine-2-carboxylic acid (6-trifluoromethyl-pyridin-3-ylmethyl)-amide] showed an IC50 [1] of over 1000 nM and an IC50 [2] of over 1000 nM.

For `CC(=O)N1CCN(S(=O)(=O)c2ccc(C(C)C)cc2)C(C(=O)NCc2ccccn2)C1` (stereo not drawn) [Example 152, 4-acetyl-1-(4-isopropyl-benzenesulfonyl)-piperazine-2-carboxylic acid (pyridin-2-ylmethyl)-amide], the IC50 [1] was over 1000 nM and the IC50 [2] was over 1000 nM.

Compound `CN(C)c1ccc(CNC(=O)C2CN(C(=O)Cc3ccccn3)CCN2S(=O)(=O)c2ccc(I)cc2)cc1` (stereo not drawn) [Example 153, 1-(4-iodo-benzenesulfonyl)-4-(2-pyridin-2-yl-acetyl)-piperazine-2-carboxylic acid 4-dimethylamino-benzylamide] has an IC50 [1] of over 1000 nM and an IC50 [2] of over 1000 nM.

In the case of `CN(C)c1ccc(CNC(=O)C2CN(C(=O)Cc3cccnc3)CCN2S(=O)(=O)c2ccc(I)cc2)cc1` (stereo not drawn) [Example 154, 1-(4-iodo-benzenesulfonyl)-4-(2-pyridin-3-yl-acetyl)-piperazine-2-carboxylic acid 4-dimethylamino-benzylamide], the IC50 [1] is reported as 100 to 1000 nM and the IC50 [2] is reported as 100 to 1000 nM.

With `CC(C)c1ccc(S(=O)(=O)N2CCN(c3nc4c(s3)Cc3ccccc3-4)CC2C(=O)NCc2ccc(C(F)(F)F)cc2)cc1` (stereo not drawn) [Example 155, 4-(8H-indeno[1,2-d]thiazol-2-yl)-1-(4-isopropyl-benzenesulfonyl)-piperazine-2-carboxylic acid 4-trifluoromethyl-benzylamide] the IC50 [1] was over 1000 nM and the IC50 [2] was over 1000 nM.

For `CC(C)c1ccc(S(=O)(=O)N2CCN(c3nc4c(s3)CCCC4)CC2C(=O)NCc2ccc(C(F)(F)F)cc2)cc1` (stereo not drawn) [Example 156, 1-(4-isopropyl-benzenesulfonyl)-4-(4,5,6,7-tetrahydro-benzothiazol-2-yl)-piperazine-2-carboxylic acid 4-trifluoromethyl-benzylamide], the IC50 [1] was over 1000 nM and the IC50 [2] was over 1000 nM.

For `CN(C)c1ccc(CNC(=O)[C@H]2CN(C(=O)CN)CCN2S(=O)(=O)c2ccc(I)cc2)cc1` [Example 157, (R)-4-(2-amino-acetyl)-1-(4-iodo-benzenesulfonyl)-piperazine-2-carboxylic acid 4-dimethylamino-benzylamide hydrochloride], the IC50 [1] was over 1000 nM and the IC50 [2] was over 1000 nM.

In the case of `CN(C)c1ccc(CNC(=O)[C@H]2CN(C(=O)CN3CCCCC3)CCN2S(=O)(=O)c2ccc(I)cc2)cc1` [Example 158, (R)-1-(4-iodo-benzenesulfonyl)-4-(2-piperidin-1-yl-acetyl)-piperazine-2-carboxylic acid 4-dimethylamino-benzylamide], the IC50 [1] is reported as over 1000 nM and the IC50 [2] is reported as over 1000 nM.

With `CN(C)c1ccc(CNC(=O)[C@H]2CN(C(=O)CN3CCCC3)CCN2S(=O)(=O)c2ccc(I)cc2)cc1` [Example 159, (R)-1-(4-iodo-benzenesulfonyl)-4-(2-pyrrolidin-1-yl-acetyl)-piperazine-2-carboxylic acid 4-dimethylamino-benzylamide] the IC50 [1] was over 1000 nM and the IC50 [2] was over 1000 nM.

`CN(C)c1ccc(CNC(=O)[C@H]2CN(C(=O)CN3CCOCC3)CCN2S(=O)(=O)c2ccc(I)cc2)cc1` [Example 160, (R)-1-(4-iodo-benzenesulfonyl)-4-(2-morpholin-4-yl-acetyl)-piperazine-2-carboxylic acid 4-dimethylamino-benzylamide] showed an IC50 [1] of 100 to 1000 nM and an IC50 [2] of 100 to 1000 nM.

`CC(=O)N1CCN(S(=O)(=O)c2ccc(Cl)cc2Cl)C(C(=O)NCc2ccc(C(F)(F)F)cc2)C1` (stereo not drawn) [Example 161, 4-acetyl-1-(2,4-dichloro-benzenesulfonyl)-piperazine-2-carboxylic acid 4-trifluoromethyl-benzylamide] showed an IC50 [1] of over 1000 nM and an IC50 [2] of over 1000 nM.

In the case of `CCC(CC)c1ccc(S(=O)(=O)N2CCN(C(C)=O)CC2C(=O)NCc2ccc(C(F)(F)F)cc2)cc1` (stereo not drawn) [Example 162, 4-acetyl-1-[4-(1-ethyl-propyl)-benzenesulfonyl]-piperazine-2-carboxylic acid 4-trifluoromethyl-benzylamide], the IC50 [1] is reported as over 1000 nM and the IC50 [2] is reported as over 1000 nM.

`CCC(CC)c1ccc(CNC(=O)C2CN(C(C)=O)CCN2S(=O)(=O)c2ccc(C(C)C)cc2)cc1` (stereo not drawn) [Example 163, 4-acetyl-1-(4-isopropyl-benzenesulfonyl)-piperazine-2-carboxylic acid 4-(1-ethyl-propyl)-benzylamide] showed an IC50 [1] of 100 to 1000 nM and an IC50 [2] of 100 to 1000 nM.

Compound `CC(=O)N1CCN(S(=O)(=O)c2ccc3ccccc3c2)C(C(=O)NCc2ccc(C(F)(F)F)cc2)C1` (stereo not drawn) [Example 164, 4-acetyl-1-(naphthalene-2-sulfonyl)-piperazine-2-carboxylic acid 4-trifluoromethyl-benzylamide] has an IC50 [1] of over 1000 nM and an IC50 [2] of over 1000 nM.

`CC(=O)N1CCN(S(=O)(=O)c2cccc(Br)c2)C(C(=O)NCc2ccc(C(F)(F)F)cc2)C1` (stereo not drawn) [Example 165, 4-acetyl-1-(3-bromo-benzenesulfonyl)-piperazine-2-carboxylic acid 4-trifluoromethyl-benzylamide] was tested, and the IC50 [1] was over 1000 nM and the IC50 [2] was over 1000 nM.

Compound `COC(=O)CCc1ccc(S(=O)(=O)N2CCN(C(C)=O)CC2C(=O)NCc2ccc(C(F)(F)F)cc2)cc1` (stereo not drawn) [Example 166, 3-{4-[4-acetyl-2-(4-trifluoromethyl-benzylcarbamoyl)-piperazine-1-sulfonyl]-phenyl}-propionic acid methyl ester] has an IC50 [1] of over 1000 nM and an IC50 [2] of over 1000 nM.

`CC(=O)N1CCN(S(=O)(=O)c2ccc(C3CCCCC3)cc2)C(C(=O)NCc2ccc(C(F)(F)F)cc2)C1` (stereo not drawn) [Example 167, 4-acetyl-1-(4-cyclohexyl-benzenesulfonyl)-piperazine-2-carboxylic acid 4-trifluoromethyl-benzylamide] was tested, and the IC50 [1] was over 1000 nM and the IC50 [2] was over 1000 nM.

Compound `CC(=O)N1CCN(S(=O)(=O)c2cccc(C(=O)O)c2)C(C(=O)NCc2ccc(C(F)(F)F)cc2)C1` (stereo not drawn) [Example 168, 3-[4-acetyl-2-(4-trifluoromethyl-benzylcarbamoyl)-piperazine-1-sulfonyl]-benzoic acid] has an IC50 [1] of over 1000 nM and an IC50 [2] of over 1000 nM.
